Assay results published in patent US20240041878A1, “APELIN RECEPTOR MODULATORS FOR TREATMENT OF A DISORDER OR DISEASE ASSOCIATED WITH BBB PERMEABILITY” (BioAge Labs, Inc., priority 2022, published 2024).

Experiments:
Mouse primary astrocytes = experiment: Astrocyte glutamate uptake; assay type: cell-based; settings: RAC+APL [50 nM] versus RAC
Procedure: To stimulate astrocytes into a reactive state found in aging and neurodegenerative diseases per previous publications (Liddelow et al., 2017; Barbar et al., 2020), a combination of the cytokines TNF-α and IL-1α, and complement factor C1q, were added at 30 ng/mL, 3 ng/mL, and 400 ng/mL, respectively, into astrocyte culture media to make 'reactive astrocyte cocktail' (RAC) media. […] Bachem, Cat. #4029110), BAY-11-7082 (50 μM; Abcam, Cat. #ab141228) or equal volume of vehicle (0.01% DMSO in PBS) (hereafter referred to as 'RAC treatment'). […] Fresh HBSS was added to each well and 100 μM glutamate (Sigma, Cat. #G1251) was added to each well. Empty wells not containing cells were filled with HBSS and 100 μM [NT] negative control. Cells were incubated at room temperature for 3 hours before HBSS was collected and glutamate concentration determined by colorimetric assay (Sigma, Cat. #MAK004). Relative change in glutamate uptake was calculated compared to negative control wells.

Mouse astrocyte cells = experiment: CXCL1 and IL-6 ELISA of astrocyte culture media after RAC treatment; assay type: cell-based; settings: RAC+APL [50 nM]
Procedure: To stimulate astrocytes into a reactive state found in aging and neurodegenerative diseases per previous publications (Liddelow et al., 2017; Barbar et al., 2020), a combination of the cytokines TNF-α and IL-1α, and complement factor C1q, were added at 30 ng/mL, 3 ng/mL, and 400 ng/mL, respectively, into astrocyte culture media to make 'reactive astrocyte cocktail' (RAC) media. […] Bachem, Cat. #4029110), BAY-11-7082 (50 μM; Abcam, Cat. #ab141228) or equal volume of vehicle (0.01% DMSO in PBS) (hereafter referred to as 'RAC treatment'). Cells in Groups 3-6 were treated with RAC for 24 hours, with or without the test compounds (n=4 per group). • Group 1: Control [CON] • Group 2: CON+BGE-105 (50 nM) [CON+105] • Group 3: Reactive control treated with RAC only [RAC] • Group 4: RAC+BGE-105 (50 nM) [RAC+105] • Group 5: RAC+Pyrm-Apelin-13 (50 nM) • Group 6: RAC+BAY-11-7082 (NF-κB inhibitor; 50 μM) [RAC+BAY] Media from each tested cell group was collected for cytokine release analysis. Cells were lysed for RNA collection and RT-PCR was performed to synthesis cDNA under standard conditions. Next, transcriptome analysis was performed to determine the expression level of astrocyte genes or astrocyte responsive genes. Changes of expression was normalized to β-actin (FIGS. 8 and 9). Exemplary biomarkers include CCL2, CXCL10, CXCL11, CXCL1, CXCL2, CXCL3, CXCL8, EDN1, […]3, CIS, CTRL, C3, CFB, VEGF, and IL-6. For analysis of cytokines secreted by astrocytes, culture media was collected after RAC treatment, centrifuged at 10,000 RPM for 5 minutes to pellet any debris, and supernatant was transferred to a new tube and assayed immediately or frozen at -80° C. For individual analysis of CXCL1 or IL-6 concentrations, cell culture supernatant was diluted 1:50 or 1:10, respectively, and assessed using mouse-specific ELISA kits per manufacturer's protocols (R&D Systems, Cat. #DY453 and #DY406).

## (Pyr^1)-Apelin-13 [reference compound]
Mouse primary astrocytes
  percentage of glutamate uptake in RAC astrocytes: significantly and statistically increased
Mouse astrocyte cells
  CXCL1 concentration/release compared with BGE-105 [50 nM] group: no significant difference
  IL-6 concentration/release compared with BGE-105 [50 nM] group: no significant difference
